Reference: patent US7192906B2, “Substituted pyrazole derivatives, production process thereof, and herbicide compositions containing the derivatives” (SDS Biotech K.K., priority 2001, dated 2007)

Legend:
Type in all cases: in vivo
[1] = tested on: wheat (Triticum aestivum); experiment: Test Example 2 upland soil treatment, crop phytotoxicity; conditions: Table 5, upland soil treatment, index 0-5
Summary of the method: (§1)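 Pre-emergence soil treatment: seeds sown in upland soil in pots and covered with about 1 cm soil. Next day, a water-diluted wettable powder was sprayed evenly on the soil surface at 1 kg active ingredient per hectare. Weed control or crop injury was scored 0–5 (10% to ≥90% bands) 21 days later.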

[2] = tested on: soybean (Glycine max); experiment: as above; conditions: Table 5, upland soil treatment, index 0-5
Summary of the method: as §1

[3] = tested on: Rice (Oryza sativa); experiment: Test Example 3 paddy field treatment, crop phytotoxicity; conditions: paddy field treatment, transplanted rice Koshihikari, wettable powder, active ingredient 1 kg per hectare, 21st day after the dropping, index 0-5
Summary of the method: (§2)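 Scoring used a 0–5 scale of herbicidal effect or phytotoxicity, from <10% to ≥90%, taken 21 days after treatment. Treatment was 1 kg a.i./ha as diluted wettable powder dripped onto 4 cm-deep flooded pots sown with the weeds, 10 days after transplanting two-leaf Koshihikari rice.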

[4] = tested on: Chenopodium album; experiment: Test Example 1 upland field foliage treatment; conditions: Table 4, upland field foliage treatment, index 0-5
Summary of the method: (§3)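 Scored 0–5 (0: under 10%, 5: 90% or more effect or phytotoxicity) on day 21 after treatment; plants sown in upland soil received a leaf-surface spray 14 days post-sowing of diluted wettable powder delivering 1 kg active ingredient/ha.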

[5] = tested on: Digitaria adscendens; experiment: Test Example 1 upland field foliage treatment; conditions: Table 4, upland field foliage treatment, index 0-5
Summary of the method: as §3

[6] = tested on: Setaria viridis; experiment: Test Example 1 upland field foliage treatment; conditions: Table 4, upland field foliage treatment, index 0-5
Summary of the method: as §3

[7] = tested on: Stellaria media; experiment: Test Example 1 upland field foliage treatment; conditions: Table 4, upland field foliage treatment, index 0-5
Summary of the method: as §3

[8] = tested on: Monochoria vaginalis; experiment: Test Example 3 paddy field treatment; conditions: paddy field treatment, wettable powder, active ingredient 1 kg per hectare, 21st day after the dropping, index 0-5
Summary of the method: as §2

[9] = tested on: Scirpus juncoides; experiment: Test Example 3 paddy field treatment; conditions: paddy field treatment, wettable powder, active ingredient 1 kg per hectare, 21st day after the dropping, index 0-5
Summary of the method: as §2

[10] = tested on: Ammannia multiflora; experiment: Test Example 3 paddy field treatment; conditions: paddy field treatment, wettable powder, active ingredient 1 kg per hectare, 21st day after the dropping, index 0-5
Summary of the method: as §2

[11] = tested on: Echinochloa crusgalli; experiment: Test Example 3 paddy field treatment; conditions: paddy field treatment, wettable powder, active ingredient 1 kg per hectare, 21st day after the dropping, index 0-5
Summary of the method: as §2

[12] = tested on: Chenopodium album; experiment: Test Example 2 upland soil treatment; conditions: Table 5, upland soil treatment, index 0-5
Summary of the method: as §1

[13] = tested on: Digitaria adscendens; experiment: Test Example 2 upland soil treatment; conditions: Table 5, upland soil treatment, index 0-5
Summary of the method: as §1

[14] = tested on: Setaria viridis; experiment: Test Example 2 upland soil treatment; conditions: Table 5, upland soil treatment, index 0-5
Summary of the method: as §1

[15] = tested on: Stellaria media; experiment: Test Example 2 upland soil treatment; conditions: Table 5, upland soil treatment, index 0-5
Summary of the method: as §1

[16] = tested on: wheat (Triticum aestivum); experiment: Test Example 1 upland field foliage treatment, crop phytotoxicity; conditions: Table 4, upland field foliage treatment, index 0-5
Summary of the method: as §3

[17] = tested on: soybean (Glycine max); experiment: as above; conditions: Table 4, upland field foliage treatment, index 0-5
Summary of the method: as §3

Row | Structure (SMILES) | Herbicidal activity (phytotoxicity) TA: Wheat (Triticum aestivum) [1] | Herbicidal activity (phytotoxicity) GM: Soybean (Glycine max) [2] | Herbicidal activity OS (phytotoxicity to rice) [3] | Herbicidal activity CA: Chenopodium album [4] | Herbicidal activity DA: Digitaria adscendens [5] | Herbicidal activity SV: Setaria viridis [6] | Herbicidal activity SM: Stellaria media [7] | Herbicidal activity MV [8] | Herbicidal activity SJ [9] | Herbicidal activity AM [10] | Herbicidal activity EC [11] | Herbicidal activity CA: Chenopodium album [12] | Herbicidal activity DA: Digitaria adscendens [13] | Herbicidal activity SV: Setaria viridis [14] | Herbicidal activity SM: Stellaria media [15] | Herbicidal activity (phytotoxicity) TA: Wheat (Triticum aestivum) [16] | Herbicidal activity (phytotoxicity) GM: Soybean (Glycine max) [17]
1 | CNC(=O)C(Cn1cc(C)c(-c2cccc(F)c2)n1)=NOC [Compound 43] | 0 (herbicidal effect of not less than 0% and less than 10%, or phytotoxicity of 0% or more and less than 10%) | 1 (herbicidal effect of not less than 10% and less than 30%, or phytotoxicity of 10% or more and less than 30%) | 1 (herbicidal effect of not less than 10% and less than 30%, or phytotoxicity of 10% or more and less than 30%) | 5 (herbicidal effect of not less than 90%, or phytotoxicity of 90% or more) | 5 (herbicidal effect of not less than 90%, or phytotoxicity of 90% or more) | 5 (herbicidal effect of not less than 90%, or phytotoxicity of 90% or more) | 5 (herbicidal effect of not less than 90%, or phytotoxicity of 90% or more) | 5 (herbicidal effect of not less than 90%, or phytotoxicity of 90% or more) | 5 (herbicidal effect of not less than 90%, or phytotoxicity of 90% or more) | 5 (herbicidal effect of not less than 90%, or phytotoxicity of 90% or more) | 5 (herbicidal effect of not less than 90%, or phytotoxicity of 90% or more) | 5 (herbicidal effect of not less than 90%, or phytotoxicity of 90% or more) | 5 (herbicidal effect of not less than 90%, or phytotoxicity of 90% or more) | 5 (herbicidal effect of not less than 90%, or phytotoxicity of 90% or more) | 5 (herbicidal effect of not less than 90%, or phytotoxicity of 90% or more) | 0 (herbicidal effect of not less than 0% and less than 10%, or phytotoxicity of 0% or more and less than 10%) | 0 (herbicidal effect of not less than 0% and less than 10%, or phytotoxicity of 0% or more and less than 10%)
2 | CNC(=O)C(Cn1cc(C)c(-c2ccc(F)cc2)n1)=NOC [Compound 44] | 0 (herbicidal effect of not less than 0% and less than 10%, or phytotoxicity of 0% or more and less than 10%) | 0 (herbicidal effect of not less than 0% and less than 10%, or phytotoxicity of 0% or more and less than 10%) | 1 (herbicidal effect of not less than 10% and less than 30%, or phytotoxicity of 10% or more and less than 30%) | 5 (herbicidal effect of not less than 90%, or phytotoxicity of 90% or more) | 5 (herbicidal effect of not less than 90%, or phytotoxicity of 90% or more) | 5 (herbicidal effect of not less than 90%, or phytotoxicity of 90% or more) | 5 (herbicidal effect of not less than 90%, or phytotoxicity of 90% or more) | 5 (herbicidal effect of not less than 90%, or phytotoxicity of 90% or more) | 5 (herbicidal effect of not less than 90%, or phytotoxicity of 90% or more) | 5 (herbicidal effect of not less than 90%, or phytotoxicity of 90% or more) | 5 (herbicidal effect of not less than 90%, or phytotoxicity of 90% or more) | 5 (herbicidal effect of not less than 90%, or phytotoxicity of 90% or more) | 5 (herbicidal effect of not less than 90%, or phytotoxicity of 90% or more) | 5 (herbicidal effect of not less than 90%, or phytotoxicity of 90% or more) | 5 (herbicidal effect of not less than 90%, or phytotoxicity of 90% or more) | 0 (herbicidal effect of not less than 0% and less than 10%, or phytotoxicity of 0% or more and less than 10%) | 0 (herbicidal effect of not less than 0% and less than 10%, or phytotoxicity of 0% or more and less than 10%)
